The source of these data is patent publication US20100155657A1, “AQUEOUS COMPOSITION CONTAINING FLUORINATED SULFONAMIDE AND SULFONAMIDATE COMPOUNDS” (3M Innovative Properties Company, priority 2008, published 2010).

Data set [1] in a line: calculated neutralization equilibrium constant Kn for deprotonation of sulfonamide with ammonia. It counts as physicochemical. Particulars: for Kn: RfSO2NHX + NH3 -> RfSO2N(-)X + NH4+, pKa of ammonium 9.24 at 25 °C; for K(RfSO2NHX): acid dissociation constant of the sulfonamide, from pKa. Here is the method: The equilibrium between a sulfonamide and its conjugate sulfamidate anion is determined by the both the pKa of the sulfonamide and the pKb (i.e., the pKa of the conjugate acid of the base).
NH3+RfSO2NHX→NH4^++RfSO2N^(−)X
The neutralization equilibrium constant Kn can be expressed as
Kn can also be expressed as: […]

For data set [2] the following is noted: determined experimentally.

On to `CNS(=O)(=O)C(F)(F)C(F)(F)C(F)(F)C(F)(F)F` [X = CH3, CF3CF2CF2CF2SO2NHCH3], for which, in data set [1], the Kn is 52 and the “K(RfSO2NHX)” value was 3.01 × 10^−8.
For the molecule `CCNS(=O)(=O)C(F)(F)C(F)(F)C(F)(F)C(F)(F)F` [X = CH2CH3], the pKa in data set [2] was 8.15.
Turning to `O=S(=O)(NCCO)C(F)(F)C(F)(F)C(F)(F)C(F)(F)F` [X = CH2CH2OH, CF3CF2CF2CF2SO2NHCH2CH2OH], in data set [1], the Kn is 467 and the “K(RfSO2NHX)” value is reported as 2.69 × 10^−7.
For `NS(=O)(=O)C(F)(F)C(F)(F)C(F)(F)C(F)(F)F` [X = H, CF3CF2CF2CF2SO2NH2] the same measures were 1800 and 1.05 × 10^−6.
